Measured values reported in patent publication US20230190697A1, “METHODS FOR TREATING VIRAL INFECTIONS WITH NAFAMOSTAT” (priority 2020, published 2023).
“And” between values parts separate entries of the source, which are not always exact repeats. Equal values may be shown once.

How the values were obtained:
[1] = target: hERG K+ channel (Homo sapiens, UniProt Q12809); experiment: cell-based; details: human, 50 µM
Experimental: Effects of nafamostat in an hERG assay: In an in vitro non-GLP screening study, effects of nafamostat on the hERG K^+ channel currents were evaluated in voltage-clamped human embryonic kidney cells at room temperature. […] A full ICH-Compliant hERG study and in vivo cardiovascular safety pharmacology study is be performed as part of the IND-enabling program.

[2] = test system: SD rats; experiment: Single dose oral tolerability in SD rats (dose range-finding); type: in vivo
From the text: Oral Tolerability in Rats: The single dose tolerability to oral nafamostat was studied in SD rats in a non-GLP pilot dose range-finding study. […] All other animals survived to 7 days and had no abnormalities at necropsy.

[3] = test system: SD rats; experiment: Pilot repeat-dose oral study in male SD rats (5 days); type: in vivo; details: 1000 mg/kg/day PO for 5 days
Experimental: A pilot, non-GLP repeat-dose study was performed in which nafamostat mesylate (500 or 1000 mg/kg/day PO) was administered to 6 male SD rats per group for 5 days. […] One animal had petechiae on the lower third of the colon. […] Death in 2 of the animals followed seizure activity at about 1 h post-dose.

[4] = Pharmacokinetics of oral nafamostat mesylate solution in healthy male and female subjects; type: in vivo, human; details: human, oral, 200 mg dose level, individual subjects
Experimental: Part 1: Single Ascending Dose Study. Male and female subjects aged 18 - 70 were administered a single dose of 50 mg nafamostat mesylate on day 1, 100 mg nafamostat mesylate on day 3 or 4, and 200 mg nafamostat mesylate on day 5, 6, or 7. Nafamostat mesylate was administered in the form of an oral solution. […]
Part 2: Multiple Ascending Dose Study. Subjects were divided into 2 cohorts. Cohort 1 received an oral solution of 100 mg/mL nafamostat mesylate twice a day for 5 days with pharmacokinetic evaluations on each day. […] Safety evaluations continued for 48 hours after the last dose. After review and evidence of safety, Cohort 2 received an oral solution of 200 mg/mL nafamostat mesylate twice a day for 5 days with pharmacokinetic evaluations on each day. […] Safety evaluations continued for 48 hours after the last dose.
Part 3: Single Fixed Dose Administered Twice Daily for 5 Days. Six subjects, different than the subjects from Parts 1 and 2, received an oral solution of 200 mg/mL nafamostat mesylate twice a day for 5 days. Blood samples were obtained at pre-dose (0 hr.) and at 0.5, 1, 2, 3, 4, 6, and 8 hours after the first dose on Day 1 and again after the first dose on Day 5. […]
Oral solutions received by each subject were prepared by dissolving nafamostat mesylate in about 100 mL of EMETROL®/water and provided at a volume to deliver the indicated dosage. There was no placebo formulation.
Nafamostat pharmacokinetics was evaluated at the 200 mg dose levels.

hERG K+ channel, sequence (Q12809 whole entry): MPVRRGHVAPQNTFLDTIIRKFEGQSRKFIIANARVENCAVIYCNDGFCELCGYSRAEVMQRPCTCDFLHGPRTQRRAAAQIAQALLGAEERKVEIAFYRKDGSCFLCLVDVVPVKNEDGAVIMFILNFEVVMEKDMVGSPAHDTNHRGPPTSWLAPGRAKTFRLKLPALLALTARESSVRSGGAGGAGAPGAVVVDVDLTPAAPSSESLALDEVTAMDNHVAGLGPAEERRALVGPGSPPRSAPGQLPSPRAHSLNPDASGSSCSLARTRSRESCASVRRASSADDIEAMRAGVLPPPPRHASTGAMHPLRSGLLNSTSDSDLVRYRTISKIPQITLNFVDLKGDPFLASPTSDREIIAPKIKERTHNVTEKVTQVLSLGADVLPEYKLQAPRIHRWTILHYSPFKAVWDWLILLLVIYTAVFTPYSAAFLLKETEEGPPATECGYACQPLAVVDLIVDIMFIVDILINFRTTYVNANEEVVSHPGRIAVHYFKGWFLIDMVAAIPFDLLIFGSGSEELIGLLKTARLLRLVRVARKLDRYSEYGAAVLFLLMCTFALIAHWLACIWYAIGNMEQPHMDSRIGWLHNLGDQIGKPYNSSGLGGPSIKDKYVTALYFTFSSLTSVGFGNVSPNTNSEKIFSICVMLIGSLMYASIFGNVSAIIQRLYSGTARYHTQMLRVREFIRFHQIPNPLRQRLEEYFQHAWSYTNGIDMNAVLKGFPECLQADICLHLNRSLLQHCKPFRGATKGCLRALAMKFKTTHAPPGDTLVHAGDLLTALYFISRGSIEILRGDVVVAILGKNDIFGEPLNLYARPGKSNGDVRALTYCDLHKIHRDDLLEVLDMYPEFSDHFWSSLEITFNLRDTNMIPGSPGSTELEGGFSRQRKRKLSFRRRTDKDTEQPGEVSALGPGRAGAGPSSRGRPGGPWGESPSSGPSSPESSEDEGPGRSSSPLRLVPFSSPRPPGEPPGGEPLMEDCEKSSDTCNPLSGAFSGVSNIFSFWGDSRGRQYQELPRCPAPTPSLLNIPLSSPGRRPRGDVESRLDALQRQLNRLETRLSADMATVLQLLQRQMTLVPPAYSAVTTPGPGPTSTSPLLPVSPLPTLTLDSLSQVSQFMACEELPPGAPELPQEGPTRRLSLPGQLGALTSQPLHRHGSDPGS

With `CS(=O)(=O)O.CS(=O)(=O)O.N=C(N)Nc1ccc(C(=O)Oc2ccc3cc(C(=N)N)ccc3c2)cc1` [nafamostat mesylate, 6-amidino-2-naphthyl p-guanidinobenzoate dimethanesulfonate] as the molecule, how does the “inhibition of hERG potassium currents” value [1] read?
The value was “approximately 24%”.

What about the mortality ([2]; 1000 mg/kg female dose group, stomach perforations at necropsy indicate dosing misadministration) of the same molecule?
The mortality was 2 of 3 animals died at 48 hours.

And the “single dose oral tolerability” value ([2]; both, SD, rat, in vivo, po, 7 days)?
Its value is ≥ 1000 mg/kg.

What about the “necropsy finding in animals that died” value [3] of the same molecule?
Its value is “fluid filled stomach at necropsy”.

What about the mortality ([3]; 6 male SD rats) of the same molecule?
Its mortality is “Four of 6 animals receiving 1000 mg/kg/day died by day 5”.

What about the concentration at 8 h ([4]; both sexes, blood, Day 1, 8 h post-dose) of the same molecule?
The concentration at 8 h was < 0.1 ng/mL.

And the concentration at 12 h ([4]; both sexes, blood, Day 1, 12 h post-dose)?
Its concentration at 12 h is < 0.1 ng/mL.

And the “NM” value ([4]; Day 1, 0 h post-dose)?
The value was < 0.100 ng/mL.

What about the “NM” value ([4]; Day 1, 0.5 h post-dose) of the same molecule?
The value was < 0.100 ng/mL.

And the “NM” value ([4]; Day 1, 1 h post-dose, listed as NM, dimethanesulfonate)?
Its value is < 0.100 ng/mL (4×) and 0.125 ng/mL.

What about the “NM” value ([4]; Day 1, 2 h post-dose) of the same molecule?
Its value is < 0.100 ng/mL.

And the “NM” value ([4]; Day 1, 3 h post-dose)?
Its value is < 0.100 ng/mL.

And the “NM” value ([4]; Day 1, 4 h post-dose)?
The value was < 0.100 ng/mL.

What about the “NM” value ([4]; Day 1, 6 h post-dose) of the same molecule?
Its value is < 0.100 ng/mL.

What about the “NM” value ([4]; Day 1, 8 h post-dose) of the same molecule?
The value was < 0.100 ng/mL.

What about the “NM” value ([4]; Day 1, 12 h post-dose) of the same molecule?
The value was < 0.100 ng/mL.

What about the “NM” value ([4]; Day 2, 0 h post-dose) of the same molecule?
The value was < 0.100 ng/mL.

And the “NM” value ([4]; Day 2, 0.5 h post-dose)?
The value was < 0.100 ng/mL.

And the “NM” value ([4]; Day 2, 1 h post-dose)?
The value was < 0.100 ng/mL.

And the “NM” value ([4]; Day 2, 2 h post-dose)?
Its value is < 0.100 ng/mL.

And the “NM” value ([4]; Day 2, 3 h post-dose)?
Its value is < 0.100 ng/mL.

And the “NM” value ([4]; Day 2, 4 h post-dose)?
The value was < 0.100 ng/mL.

What about the “NM” value ([4]; Day 2, 6 h post-dose) of the same molecule?
The value was < 0.100 ng/mL.

What about the “NM” value ([4]; Day 2, 8 h post-dose) of the same molecule?
The value was < 0.100 ng/mL.

What about the “NM” value ([4]; Day 2, 12 h post-dose) of the same molecule?
Its value is < 0.100 ng/mL.

And the “NM” value ([4]; Day 2, 16 h post-dose)?
The value was < 0.100 ng/mL.

And the “NM” value ([4]; Day 3, 0 h post-dose)?
Its value is < 0.100 ng/mL.

What about the “NM” value ([4]; Day 3, 4 h post-dose, listed as NM, dimethanesulfonate) of the same molecule?
The value was < 0.100 ng/mL (2×) and 0.101 ng/mL.

And the “NM” value ([4]; Day 3, 8 h post-dose)?
Its value is < 0.100 ng/mL.

And the “NM” value ([4]; Day 3, 12 h post-dose)?
The value was < 0.100 ng/mL.

What about the “NM” value ([4]; Day 3, 16 h post-dose) of the same molecule?
The value was < 0.100 ng/mL.

And the “NM” value ([4]; Day 4, 0 h post-dose, listed as NM, dimethanesulfonate)?
Its value is < 0.100 ng/mL.

What about the “NM” value ([4]; Day 4, 4 h post-dose) of the same molecule?
Its value is < 0.100 ng/mL.
